Drawing on paper PMC2386126, “The Mycobacterium tuberculosis Rv2540c DNA sequence encodes a bifunctional chorismate synthase” (BMC Biochemistry, 2008), this text covers Kd and Km for two molecules.

The target of data set [1] is T1, MtCS (chorismate synthase, aroF, Rv2540c) (Mycobacterium tuberculosis, UniProt P9WPY1).
T1 construct: gene aroC
Kind of data set: biochemical. The class given is binding. The note with it: read-out: dissociation constant.

Data set [2] relates to NC(=O)C1=CN([C@@H]2O[C@H](COP(=O)(O)OP(=O)(O)OC[C@H]3O[C@@H](n4cnc5c(N)ncnc54)[C@H](O)[C@@H]3O)[C@@H](O)[C@H]2O)C=CC1. Kind of data set: purified protein. The note with it: apparent, holoenzyme preincubated with 40 μM FMNox, no EPSP, 50 mM Tris-HCl pH 7.8, 25°C.

T1 sequence (P9WPY1 whole entry, looked up): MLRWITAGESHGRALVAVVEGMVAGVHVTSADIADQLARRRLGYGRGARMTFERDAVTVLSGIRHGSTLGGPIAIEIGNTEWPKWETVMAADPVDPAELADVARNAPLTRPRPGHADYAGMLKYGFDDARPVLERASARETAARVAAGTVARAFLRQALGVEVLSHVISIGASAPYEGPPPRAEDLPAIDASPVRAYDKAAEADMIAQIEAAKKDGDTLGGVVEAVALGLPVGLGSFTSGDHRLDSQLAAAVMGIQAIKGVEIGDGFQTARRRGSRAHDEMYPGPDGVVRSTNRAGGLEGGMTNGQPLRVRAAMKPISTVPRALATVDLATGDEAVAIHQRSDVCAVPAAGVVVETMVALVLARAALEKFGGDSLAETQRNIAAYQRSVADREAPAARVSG

As for `NC(=O)C1=CN([C@@H]2O[C@H](COP(=O)(O)OP(=O)(O)OC[C@H]3O[C@@H](n4cnc5c(N)ncnc54)[C@H](O)[C@@H]3O)[C@@H](O)[C@H]2O)C=CC1` [NADH], in data set [1], the Kd is 156 ± 12 µM.

The term Km denotes the concentration of substrate that gives half-maximal velocity. Turning to “MtCS (chorismate synthase, aroF, Rv2540c) (Mycobacterium tuberculosis H37Rv)”, the Km in data set [2] is 36 ± 4 µM.
